Measured values as given in ChEMBL document CHEMBL3137667, “[Drug-induced liver injury; fourteenth updated edition of the bibliographic database of liver injuries and related drugs]” (Gastroenterol Clin Biol, 2004).

Tests used:
[1] = human, serum
[2] = human
[3] = human; remark: listed apart in the source
[4] = Times to onset, minimal and maximal, observed in the indexed observations. [column 'DELAI' in source]; details: human
[5] = human; remark: listed apart in the source
[6] = Comments (NB not yet translated). [column 'COMMENTAIRES' in source]; details: human
[7] = human; remark: listed apart in the source
[8] = human, serum, 4383 h
[9] = human; remark: listed apart in the source
[10] = human; remark: listed apart in the source
[11] = human; remark: listed apart in the source
[12] = Highest frequency of acute liver toxicity observed during clinical trials, expressed as a percentage. [column '% AIGUE' in source]; details: human
[13] = Highest frequency of moderate liver toxicity observed during clinical trials, expressed as a percentage. [column '% BIOL' in source]; details: human
[14] = human; remark: listed apart in the source
[15] = human, serum; remark: listed apart in the source
[16] = Proposed mechanism(s) of liver damage. [column 'MEC' in source]; details: human
[17] = human; remark: listed apart in the source
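Wherever Hepatotoxicity (association with vascular disease) is given: count of indexed literature references reporting vascular liver injury in humans, e.g. peliosis hepatitis, hepatic veno-occlusive disease or Budd-Chiari syndrome.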
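Wherever Hepatotoxicity (benign tumour) is given: value is a count of indexed literature references citing a benign tumour confirmed by histopathology.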
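Wherever Hepatotoxicity (choleostasis) is given: human cholestatic liver injury, shown by histopathology or by peak ALT or AST elevation over alkaline phosphatase ratio below 2, value counts indexed literature reports.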
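Wherever Hepatotoxicity (chronic liver disease) is given: chronic liver injury confirmed by histopathology or persistently raised serum aminotransferase activity beyond 6 months, value given as the count of indexed literature references.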
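Wherever Hepatotoxicity (cirrhosis) is given: value is a count of indexed literature references reporting cirrhosis confirmed by histopathology.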
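Wherever Hepatotoxicity (cytolytic) is given: human cytolytic liver injury, shown by histopathology or by a ratio above 5 of peak ALT or AST elevation to alkaline phosphatase elevation, value counts indexed references.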
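Wherever Hepatotoxicity (granulomatous hepatitis) is given: value is a count of indexed literature references reporting granulomatous liver disease confirmed by histopathology.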
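Wherever Hepatotoxicity (malignant tumour) is given: malignant tumour confirmed by histopathology, value gives the count of indexed literature references reporting it.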
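Wherever Hepatotoxicity (severe hepatitis) is given: human clinical data: severe hepatitis, meaning potentially life-threatening liver failure or clinically observed cases, the value counts how many indexed literature references report it.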
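Wherever Hepatotoxicity (steatosis) is given: steatosis confirmed by histopathology, value is the count of indexed references.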

Structure (SMILES) | Hepatotoxicity (moderate) [1] | Hepatotoxicity (choleostasis) [2] | Hepatotoxicity (severe hepatitis) [3] | Hepatotoxicity (time to onset) [4] | Hepatotoxicity (malignant tumour) [5] | Hepatotoxicity (comment) [6] | Hepatotoxicity (granulomatous hepatitis) [7] | Hepatotoxicity (chronic liver disease) [8] | Hepatotoxicity (cytolytic) [9] | Hepatotoxicity (benign tumour) [10] | Hepatotoxicity (cirrhosis) [11] | Hepatotoxicity (acute) [12] | Hepatotoxicity (moderate) [13] | Hepatotoxicity (steatosis) [14] | Hepatotoxicity (acute) [15] | Hepatotoxicity (mechanism) [16] | Hepatotoxicity (association with vascular disease) [17] | also measured
CCc1cc2c(s1)N(C)C(=O)CN=C2c1ccccc1Cl [CLOTIAZEPAM] | 0 | 0 | 0 | 7 months | 0 | AC_ANTI-N | 0 | 0 | 2 | 0 | 0 | 0% | 0% | 0 | 2 | Allergic | 0 | –
CN1CCC(=C2c3ccccc3C=Cc3ccccc32)CC1 [CYPROHEPTADINE] | 0 | 3 | 0 | 1 week - 1 month | 0 | CHOLESTASE_PROLONGEE CHOLANGITE | 0 | 0 | 3 | 0 | 0 | 0% | 0% | 0 | 5 | Allergic | 0 | –
CC(=O)Oc1cccc2c1C(=O)c1c(OC(C)=O)cc(C(=O)O)cc1C2=O [DIACEREIN] | 0 | 1 | 1 | 10 days | 0 | AC_ANTI-N | 0 | 0 | 1 | 0 | 0 | 0% | 0% | 0 | 2 | Allergic | 0 | –
Cc1onc(-c2c(Cl)cccc2Cl)c1C(=O)N[C@@H]1C(=O)N2[C@@H]1SC(C)(C)[C@@H]2C(=O)O [DICLOXACILLIN] | 2 | 3 | 0 | 5 days - 2 months | 0 | CHOLESTASE_PROLONGEE | 1 | 1 | 0 | 0 | 0 | 0% | 0% | 0 | 4 | Allergic | 0 | –
O=C(O)c1cc(-c2ccc(F)cc2F)ccc1O [DIFLUNISAL] | 2 | – | – | 1 week - 1 month | 0 | AC_ANTI-ML | – | 0 | – | 0 | 0 | – | – | 0 | 5 | – | 0 | Hepatotoxicity (choleostasis) ([2]; Liver): 4; Hepatotoxicity (severe hepatitis) ([3]; Liver): 0; Hepatotoxicity (granulomatous hepatitis) ([7]; Liver): 1; Hepatotoxicity (cytolytic) ([9]; Liver): 2; Hepatotoxicity (acute) ([12]; Liver): 0%; Hepatotoxicity (moderate) ([13]; Liver): 5%; Hepatotoxicity (mechanism) ([16]; Liver): Allergic
C[C@H]1c2cccc(O)c2C(=O)C2=C(O)[C@]3(O)C(=O)C(C(N)=O)=C(O)[C@@H](N(C)C)[C@@H]3[C@@H](O)[C@@H]21.O [DOXYCYCLINE] | 8 | 3 | 1 | 1 day - 12 years | 0 | CHOLESTASE_PROLONGEE DUCTOPENIE | 0 | 1 | 1 | 0 | 0 | 0% | 10% | 2 | 5 | Allergic | 0 | –
COc1cc([C@@H]2c3cc4c(cc3[C@@H](O[C@@H]3O[C@@H]5CO[C@@H](C)O[C@H]5[C@H](O)[C@H]3O)[C@H]3COC(=O)[C@H]23)OCO4)cc(OC)c1O [ETOPOSIDE] | 24 | – | – | 1 week - 5 weeks | 0 | MVO | – | 0 | – | 0 | 0 | – | – | 0 | 4 | – | 10 | Hepatotoxicity (choleostasis) ([2]; Liver): 2; Hepatotoxicity (severe hepatitis) ([3]; Liver): 5; Hepatotoxicity (granulomatous hepatitis) ([7]; Liver): 0; Hepatotoxicity (cytolytic) ([9]; Liver): 2; Hepatotoxicity (acute) ([12]; Liver): 1%; Hepatotoxicity (moderate) ([13]; Liver): 50%; Hepatotoxicity (mechanism) ([16]; Liver): Dose-dependant
O=C(c1cc(O)c(O)c(O)c1)c1ccc(O)c(O)c1O [EXIFONE] | 0 | 0 | 4 | 3 weeks - 8 months | 0 | AC_ANTI-ML/-N | 0 | 0 | 9 | 0 | 0 | 0% | 0% | 0 | 9 | Allergic, Toxic | 0 | –
COCCCC/C(=N\OCCN)c1ccc(C(F)(F)F)cc1 [FLUVOXAMINE] | 5 | 2 | 0 | 4 days - 4 months | 0 | SURDOSAGE | 0 | 0 | 1 | 0 | 0 | 0% | 0% | 0 | 3 | Dose-dependant | 0 | –
CC(=O)O[C@H]1C[C@@]2(C)[C@@H](C[C@@H](O)[C@H]3[C@@]4(C)CC[C@@H](O)[C@@H](C)[C@@H]4CC[C@@]32C)/C1=C(\CCC=C(C)C)C(=O)O [FUSIDIC ACID] | 12 | 2 | 0 | 2 days - 2 months | 0 | HYPERBILIRUBINEMIE | 0 | 0 | 0 | 0 | 0 | 34% | 50% | 0 | 19 | Dose-dependant | 0 | –
COc1c(N2CCNC(C)C2)c(F)cc2c(=O)c(C(=O)O)cn(C3CC3)c12 (centres undefined) [GATIFLOXACIN] | 18 | 2 | 1 | 2 days - 8 days | 0 | CHOLESTASE_PROLONGEE DUCTOPENIE | 0 | 1 | 2 | 0 | 0 | 0% | 6.5% | 2 | 3 | Allergic | 0 | –
Cc1ccc(C)c(OCCCC(C)(C)C(=O)O)c1 [GEMFIBROZIL] | 24 | 0 | – | 9 days - 12 days | 0 | I/LOVASTATINE | 0 | 0 | 1 | 0 | 0 | – | – | 1 | 1 | Dose-dependant | 0 | Hepatotoxicity (severe hepatitis) ([3]; Liver): 0; Hepatotoxicity (acute) ([12]; Liver): 0%; Hepatotoxicity (moderate) ([13]; Liver): 10%
